Measured values from PMC7688903 (Frontiers in Microbiology, 2020).
In brackets after ≈: the same amount, converted by molar mass. Entries after “also recorded” stand apart in the source; their conditions may differ. Where a SMILES comes first, the peptide text is derived from it. Where no end group is shown, it is not given here. [ ]: non-standard residue; d: D form. hArg = N=C(N)NCCCC[C@H](N)C(=O)O; 2Thi = N[C@@H](Cc1cccs1)C(=O)O; Aib = CC(C)(N)C(=O)O

How the values were obtained:
[1] = plasma from healthy volunteers; conditions: human, 37°C, up to 36 h
Trypsin = assay: trypsin in 0.1 M NH4HCO3 buffer (pH 8.2); conditions: 37°C, up to 24 h
C. albicans ATCC 10231 = assay: microbe, parasite or virus in culture; type: cell-based, Candida albicans; conditions: ATCC 10231, 48 h
Procedure: (§1) The antimicrobial activities of the peptides were tested against E. coli ATCC 25922, P. aeruginosa ATCC 27853, carbapenem-resistant P. aeruginosa SIPI-012, A. baumannii ATCC 19606, carbapenem-resistant A. baumannii SIPI-025, S. aureus ATCC 25923, and C. albicans ATCC 10231. The minimum inhibitory concentration (MIC) values were determined using the microdilution method according to Clinical and Laboratory Standards Institute guidelines ([CLSI, 2008], [2012]). The peptides were dissolved in 10 mM PB to a concentration of 1280 μg/mL as stock solutions.
(§2) For inoculum preparation of bacteria, morphologically similar colonies selected from fresh MH agar plates were transferred using a loop into approximately 10 mL of MH broth in a capped test tube and vortexed. The suspension was adjusted with MH broth to achieve a turbidity equivalent to a 0.5 McFarland standard (BaSO4 solution prepared spectrophotometrically). A working suspension was prepared by making a 1:15 dilution followed by a 1:20 dilution of the stock suspension with MH broth medium to obtain approximately 5 × 10^5 CFU/mL. For inoculum preparation of yeast, five fresh colonies of approximately 1 mm diameter were picked from 24-hour-old cultures of C. albicans and suspended in 5 mL of sterile 0.85% saline. The resulting suspension was vortexed and the cell density was adjusted by adding sufficient sterile saline to achieve a turbidity equivalent to a 0.5 McFarland standard. A working suspension was prepared by making a 1:100 dilution followed by a 1:20 dilution of the stock suspension with RPMI 1640 broth medium to obtain 0.5 × 10^3 to 2.5 × 10^3 CFU/mL. Intermediate twofold dilutions of the peptides were prepared in MH broth and RPMI 1640 medium, and 90 μL aliquots were added to each well in addition to 10 μL of the inoculum prepared above.
(§3) Each plate included a growth control well and a sterility (uninoculated) control well. Colistin, vancomycin hydrochloride, and amphotericin B were used as positive controls for gram-negative bacteria, gram-positive bacteria, and fungi, respectively. The bacterial and fungal plates were incubated at 37°C for 20 h and 35°C for 48 h, respectively, both under ambient atmosphere. The inhibition of microbial growth was assessed visually. The MICs were determined from independent triplicate assays.

RAW 264.7 cells = assay: Cell viability assay (MTT); type: cell-based, mouse; conditions: 1–128 μM peptide in DMEM with 4% FBS, 42 h, 595 nm, triplicate
Procedure: The peptides were dissolved in ddH2O to a concentration of 256 μM. RAW 264.7 cells were cultured in 100 μL of DMEM containing 10% FBS and seeded at a density of 1 × 10^4 cells in a 96-well culture plate. The plate was incubated at 37°C under 5% CO2 atmosphere overnight. After attaining 80% confluency, the cells were treated with various concentrations of the peptides (1–128 μM) dissolved in DMEM containing 4% FBS for 42 h. Cytotoxicity was determined using the MTT tetrazolium reduction assay and quantified spectrophotometrically at 595 nm using a SpectraMax i3x microplate reader. The cell viability was calculated with respect to control samples treated only with DMEM containing 4% FBS ([Khara et al., 2016]). Each test was done in triplicate and the concentration required for 50% inhibition of viability (IC50) was determined.

P. aeruginosa ATCC 27853 = type: cell-based, Pseudomonas aeruginosa; conditions: ATCC 27853, 20 h
Procedure: as §1, §2, §3

[2] = system: carbapenem-resistant P. aeruginosa (CRPA) SIPI-012; type: cell-based, Pseudomonas aeruginosa; conditions: carbapenem-resistant (CRPA) SIPI-012, 20 h
Procedure: as §1, §2, §3

S. aureus ATCC 25923 = assay: microbe, parasite or virus in culture; type: cell-based, Staphylococcus aureus; conditions: ATCC 25923, 20 h
Procedure: as §1, §2, §3

[3] = system: carbapenem-resistant A. baumannii (CRAB) SIPI-025; type: cell-based, Acinetobacter baumannii; conditions: carbapenem-resistant (CRAB) SIPI-025, 20 h
Procedure: as §1, §2, §3

A. baumannii ATCC 19606 = type: cell-based, Acinetobacter baumannii; conditions: ATCC 19606, 20 h
Procedure: as §1, §2, §3

human erythrocytes = assay: Hemolytic activity assay; type: cell-based; conditions: human RBC in PB, 37°C, 1 h, OD420, total lysis control 0.1% SDS, three technical replicates
Procedure: Whole blood was obtained from a healthy volunteer. The red blood cells (RBC) were then centrifuged (800 × g, 10 min), washed twice with PB, resuspended in 1 mL of PB, and incubated with various concentrations of the peptides (32–128 μM) at 37°C for 1 h. As a positive control, total lysis of the RBC was accomplished by incubation with 0.1% SDS. For each condition, three technical replicates were performed. After incubation, the RBC were centrifuged at 800 × g for 10 min and the amount of hemoglobin released into the supernatant was determined by measuring the optical density OD420 using a SpectraMax i3x microplate reader (Molecular Devices) ([Zaet et al., 2017]).

E. coli ATCC 25922 = type: cell-based, Escherichia coli; conditions: ATCC 25922, 20 h
Procedure: as §1, §2, §3

[4] = system: proteases secreted by S. aureus ATCC 25923; assay: in vitro
Procedure: The stabilities of the peptides toward proteases secreted by E. coli ATCC 25922, P. aeruginosa ATCC 27853, A. baumannii ATCC 19606, S. aureus ATCC 25923, and C. albicans ATCC 10231 were also examined. Microbial supernatants were prepared by resuspending single colonies of each strain in 20 mL of an appropriate culture medium followed by incubation at 37°C overnight. MH broth and 2% tryptone/2% dextrose were used as the culture media for bacteria and yeast, respectively. Each culture was then centrifuged at 12,000 × g for 10 min and the supernatant was adjusted to pH 8.0 with HCl or NaOH and then filtered through a 0.22 μm sterile filter membrane ([Zaet et al., 2017]). The peptides were then dissolved in the filtered supernatants to a concentration of 0.5 mg/mL, and the peptide-free supernatants were used as negative controls. The samples were incubated at 37°C for 24 h in a water bath and then analyzed by RP-HPLC as described above.

human plasma proteases = assay: in vitro
Procedure: The peptides were mixed with plasma from healthy volunteers to a final concentration of 0.1 mg/mL and incubated at 37°C. Aliquots (20 or 40 μL) were removed after 0, 2, 4, 6, 8, 12, 24, and 36 h, mixed with 0.05% TFA to a final concentration of 0.01 mg/mL, and incubated on ice for 10 min. After centrifugation (12,000 × g, 5 min), the supernatant was stored at −20°C. The samples were analyzed as described in section “Hydrophobicity” and quantified as described in section “Stability Toward Tryptic Degradation.” All stability tests were performed at least in triplicate. The identities of the metabolites after 12 h of degradation by plasma proteases were determined by LC-MS on a Waters Acquity UPLC-QDa system.

In the case of KRLFKKLLKYLRkF, the fragment found [1] is reported as “(K) RLFK(K) 2–5, major, 12 h; also recorded: KRLFKKLLKYL (R) 1–11, major, 12 h; also recorded: (K) RLFKKLLKYLRkF 2–14, major, 12 h” and the fragment found (Trypsin) is reported as “(K) KLLK (Y) 6–9, major, 18 h; also recorded: (R) LFKK (L) 3–6, major, 18 h; also recorded: (K) LLK (Y) 7–9, major, 18 h; also recorded: (K) YLR (k) 10–12, major, 18 h; also recorded: (R) LFK (K) 3–5, major, 18 h; also recorded: (K) YLRkF 10–14, major, 18 h”.

For KRLFKKLLKYLRKF, the fragment found [1] was “(R) LFKKLLKYLRKF 3–14, major, 12 h; also recorded: (K) RLFKKLLKYLRKF 2–14, major, 12 h” and the fragment found (Trypsin) was “(R) LFK (K) 3–5, major, 18 h; also recorded: (K) LLK (Y) 7–9, major, 18 h; also recorded: (K) YLR (K) 10–12, major, 18 h; also recorded: (K) KLLK (Y) 6–9, major, 18 h; also recorded: (R) LFKK (L) 3–6, major, 18 h”.

In the case of [Aib]RLFKKLLKYLRK[2Thi], the fragment found [1] is reported as “(R) LFKKLLKYLRKThi 3–14, major, 12 h” and the fragment found (Trypsin) is reported as “(K) KLLK (Y) 6–9, major, 18 h; also recorded: (R) LFKK (L) 3–6, major, 18 h; also recorded: (K) LLK (Y) 7–9, major, 18 h; also recorded: (K) YLR (K) 10–12, major, 18 h; also recorded: (R) LFK (K) 3–5, major, 18 h”.

For DabHorLFDabDabLLDabYLHorDabF, the fragment found [1] was “(Hor) LFDabDabLLDabYLHorDabF 3–14, major, 12 h; also recorded: (Dab) HorLFDabDabLLDabYLHorDabF 2–14, major, 12 h” and the fragment found (Trypsin) was “(Dab) HorLFDab (Dab) 2–5, major, 18 h; also recorded: (Dab) HorLFDabDabLLDab (Y) 2–9, major, 18 h”.

For krLFkkLLKYLRkF, the fragment found [1] was “(K) YLRkF 10–14, major, 12 h; also recorded: krLFkkLL (K) 1–8, major, 12 h” and the fragment found (Trypsin) was “(K) YLR (k) 10–12, major, 18 h; also recorded: krLFkkLLK (Y) 1–9, major, 18 h; also recorded: (K) YLRkF 10–14, major, 18 h”.

`CC(C)C[C@H](NC(=O)[C@H](Cc1ccc(O)cc1)NC(=O)[C@H](CCCCN)NC(=O)[C@H](CC(C)C)NC(=O)[C@H](CC(C)C)NC(=O)[C@H](CCCCN)NC(=O)[C@H](CCCCN)NC(=O)[C@H](Cc1ccccc1)NC(=O)[C@H](CC(C)C)NC(=O)[C@H](CCCNC(=N)N)NC(=O)[C@@H](N)CCCCN)C(=O)N[C@@H](CCCNC(=N)N)C(=O)N[C@@H](CCCCN)C(=O)N[C@@H](Cc1cccs1)C(N)=O` [UP08] (H-KRLFKKLLKYLRK[2Thi]-NH2) showed an MIC (C. albicans ATCC 10231) of 4 µg/mL (≈ 2.12 µM), an IC50 (RAW 264.7 cells) of 14.6 ± 2.96 µM and an MIC (P. aeruginosa ATCC 27853) of 2 µg/mL (≈ 1.06 µM). It also gave an MIC [2] of 4 µg/mL (≈ 2.12 µM), an MIC (S. aureus ATCC 25923) of 1 µg/mL (≈ 0.53 µM) and an MIC [3] of 2 µg/mL (≈ 1.06 µM). The MIC (A. baumannii ATCC 19606) was 2 µg/mL (≈ 1.06 µM), the “Hemolysis rate (%)” value (human erythrocytes; 64 μM) was 52.49 ± 2.25 % and the “Hemolysis rate (%)” value (human erythrocytes; 128 μM) was 86.84 ± 1.24 %. The MIC (E. coli ATCC 25922) was 2 µg/mL (≈ 1.06 µM), the “Percent of remained peptide amount after incubation (%)” value ([4]; S. aureus ATCC 25923 culture supernatant (MH broth), pH 8.0, 0.22 μm filtered, peptide 0.5 mg/mL, 37°C, 24 h, RP-HPLC) was 26.85 ± 2.61% and the metabolised at 2 h, 0.1 mg/mL (human plasma proteases) was > 40%. The metabolised at 4 h, 0.1 mg/mL (human plasma proteases) was > 50%.

`CC(C)C[C@H](NC(=O)[C@H](Cc1ccc(O)cc1)NC(=O)[C@H](CCCCN)NC(=O)[C@H](CC(C)C)NC(=O)[C@H](CC(C)C)NC(=O)[C@H](CCCCN)NC(=O)[C@H](CCCCN)NC(=O)[C@H](Cc1ccccc1)NC(=O)[C@H](CC(C)C)NC(=O)[C@H](CCCNC(=N)N)NC(=O)[C@@H](N)CCCCNC(=N)N)C(=O)N[C@@H](CCCNC(=N)N)C(=O)N[C@@H](CCCCN)C(=O)N[C@@H](Cc1cccs1)C(N)=O` [UP10] (H-[hArg]RLFKKLLKYLRK[2Thi]-NH2) gave an MIC (C. albicans ATCC 10231) of 4 µg/mL (≈ 2.07 µM), an IC50 (RAW 264.7 cells) of 22.8 ± 4.65 µM and an MIC (P. aeruginosa ATCC 27853) of 1 µg/mL (≈ 0.519 µM). It also gave an MIC [2] of 4 µg/mL (≈ 2.07 µM), an MIC (S. aureus ATCC 25923) of 0.5 µg/mL (≈ 0.259 µM) and an MIC [3] of 2 µg/mL (≈ 1.04 µM). For the same compound, the MIC (A. baumannii ATCC 19606) was 2 µg/mL (≈ 1.04 µM), the “Hemolysis rate (%)” value (human erythrocytes; 64 μM) was 56.82 ± 2.62 % and the “Hemolysis rate (%)” value (human erythrocytes; 128 μM) was 95.02 ± 1.84 %. The MIC (E. coli ATCC 25922) was 2 µg/mL (≈ 1.04 µM), the remaining at 24 h, 0.5 mg/mL ([4]; Staphylococcus aureus, S. aureus ATCC 25923 culture supernatant, pH 8) was 31.6 ± 7.81% and the metabolised at 2 h, 0.1 mg/mL (human plasma proteases) was > 40%. For the same compound, the metabolised at 4 h, 0.1 mg/mL (human plasma proteases) was > 50%.
